Assay [1] has as its system P. falciparum 3D7 parasites. The experiment in a line: Asexual erythrocytic-stage SYBR Green I proliferation assay, 1536-well. The format is cell-based, Plasmodium falciparum.
Assay [2] deals with Plasmodium berghei (Pb-Luc) exoerythrocytic-stage parasites. To be noted: read-out: P. berghei (liver) IC50; Table S1, validation set of 50 antimalarials; Pb-Luc.
Assay [3] shares this test system. As to the kind of experiment: microbe, parasite or virus in culture.
The test system of assay [4] is Plasmodium cynomolgi exoerythrocytic-stage small (hypnozoites) and large (liver stage schizonts) parasites. As to the kind of experiment: P. cynomolgi liver assay in primary hepatocytes. To be noted: Plasmodium cynomolgi, Hepatocyte.
In another assay the test system is HepG2-A16-CD81EGFP cells. The experiment in a line: cells. To be noted: Homo sapiens.
In assay [5] the target is QuantiLum Recombinant Luciferase (Photinus pyralis, UniProt P08659). As to the kind of experiment: Bioluminescence quantification of compound luciferase inhibition.
[6] abbreviates: read-out: P. falciparum (blood) IC50, Table S1, validation set of 50 antimalarials.
The mark [7] stands for this setting: read-out: P. berghei (liver) IC50, Table S1, validation set of 50 antimalarials, Pb-Luc.
The mark [8] stands for this setting: Plasmodium falciparum, 3D7, read-out: P. falciparum (blood) IC50, Table S1, validation set of 50 antimalarials.
The mark [9] stands for this setting: read-out: P. berghei (liver) IC50.
Setting [10] is: Plasmodium falciparum, 3D7, read-out: P. falciparum (blood) IC50.
Where [11] appears, read: read-out: % inhibition normalized to untreated control, Large.
Where [12] appears, read: read-out: % inhibition normalized to untreated control, Small.

The term inhibition denotes the change of the read-out against control, counted positive when it falls.

Counter-ions that a name gives are not always drawn. Like-named read-outs stand apart in the source and are kept apart here. A value given as a limit tells only on which side of the number the result lay.

QuantiLum Recombinant Luciferase, sequence (P08659 whole entry): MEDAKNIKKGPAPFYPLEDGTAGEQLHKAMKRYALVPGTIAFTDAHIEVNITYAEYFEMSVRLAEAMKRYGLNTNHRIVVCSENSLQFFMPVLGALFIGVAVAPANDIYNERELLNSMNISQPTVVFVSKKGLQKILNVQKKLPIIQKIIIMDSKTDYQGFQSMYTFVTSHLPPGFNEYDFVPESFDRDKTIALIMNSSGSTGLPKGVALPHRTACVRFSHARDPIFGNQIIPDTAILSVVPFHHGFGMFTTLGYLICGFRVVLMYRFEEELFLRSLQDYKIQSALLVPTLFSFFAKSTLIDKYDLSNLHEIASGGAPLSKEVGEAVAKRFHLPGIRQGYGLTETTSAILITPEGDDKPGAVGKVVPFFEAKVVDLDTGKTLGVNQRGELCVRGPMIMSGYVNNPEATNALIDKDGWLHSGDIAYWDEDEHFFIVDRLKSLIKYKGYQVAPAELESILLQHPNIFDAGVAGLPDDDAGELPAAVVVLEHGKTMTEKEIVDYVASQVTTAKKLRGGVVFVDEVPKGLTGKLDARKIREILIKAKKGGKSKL

Consider `OC(c1cc(C(F)(F)F)nc2c(C(F)(F)F)cccc12)C1CCCCN1` (racemic) [Mefloquine (Racemic), Mefloquine, reference compound], for which the IC50 in assay [1] (setting [6]) is under 0.4 nM; in assay [2] it was 3060 nM.
For the compound `CCCCC[C@H]1CN[C@H](C(=O)N[C@H]([C@H]2O[C@H](SC)[C@H](O)[C@@H](O)[C@H]2O)[C@@H](C)Cl)C1` (relative stereo) [Cis-Mirincamycin, reference compound], the IC50 in assay [1] (setting [6]) was 7560 nM; in assay [2] it was over 12500 nM.
Take `CCN(CC)CCCNc1ccnc2cc(Cl)ccc12` [AQ-13, reference compound]: the IC50 amounted to 8.7 nM in assay [1] (setting [6]) and 3160 nM in assay [2].
As for `CCN(CC)Cc1cc(Nc2ccnc3cc(Cl)ccc23)ccc1O` [Amodiaquine, reference compound], the IC50 was 1590 nM in assay [3] (setting [7]) and over 62500 nM in assay [1] (setting [8]).
For the compound `CO[C@H]1O[C@@H]2O[C@@]3(C)CC[C@H]4[C@H](C)CC[C@@H]([C@H]1C)[C@@]24OO3` [Artemether, reference compound], the values for the IC50 in assay [3] (setting [7]) and in assay [1] (setting [8]) were 3140 nM and under 0.4 nM, respectively.
On the same counts, the results for `C[C@@H]1CC[C@H]2[C@@H](C)C(=O)O[C@@H]3O[C@@]4(C)CC[C@@H]1[C@]32OO4` [Artemisinin, reference compound] are 1720 nM and 4.7 nM.
Taken in the same sequence, the figures for `C[C@H]1[C@H](N2CCS(=O)(=O)CC2)O[C@@H]2O[C@@]3(C)CC[C@H]4[C@H](C)CC[C@@H]1[C@@]24OO3` [Artemisone, reference compound] were 178 nM and 0.7 nM.
On the same counts, the results for `C[C@H]1[C@@H](O)O[C@@H]2O[C@@]3(C)CC[C@H]4[C@H](C)CC[C@@H]1[C@@]24OO3` [Artenimol, reference compound] are 1560 nM and under 0.4 nM.
On to `C[C@H]1[C@H](OC(=O)CCC(=O)O)O[C@@H]2O[C@@]3(C)CC[C@H]4[C@H](C)CC[C@@H]1[C@@]24OO3` [Artesunate, reference compound], for which the IC50 in assay [3] (setting [7]) stood at 246 nM; in assay [1] (setting [8]) it was 0.9 nM.
On the same counts, the results for `CC[C@H]1OC(=O)[C@H](C)[C@@H](O[C@H]2C[C@@](C)(OC)[C@@H](O)[C@H](C)O2)[C@H](C)[C@@H](O[C@@H]2O[C@H](C)C[C@H](N(C)C)[C@H]2O)[C@](C)(O)C[C@@H](C)CN(C)[C@H](C)[C@@H](O)[C@]1(C)O` [Azithromycin, reference compound] are over 12500 nM and 257 nM.
On to `CCN(CC)CCCC(C)Nc1ccnc2cc(Cl)ccc12` (stereo not shown) [Chloroquine, reference compound], for which the IC50 in assay [3] (setting [9]) is over 12500 nM; in assay [1] (setting [10]), 2.1 nM.
As to `CC(C)NC(=N)NC(=N)Nc1ccc(Cl)c(Cl)c1` [Chlorproguanil HCL, reference compound], the IC50 in assay [1] (setting [6]) was 4720 nM; in assay [2], 500 nM.
For the compound `CC1(C)N=C(N)N=C(N)N1c1ccc(Cl)cc1` [Cycloguanil, reference compound], the IC50 was found to be 7 nM in assay [3] (setting [7]) and 3.1 nM in assay [1] (setting [8]).
Consider `C[C@@H]1C[C@@H]([C@H](O)CC2CC(=O)NC(=O)C2)C(=O)[C@@H](C)C1` [Cycloheximide, reference compound], for which the results for the IC50 in assay [3] (setting [9]) and in assay [1] (setting [10]) were 20.7 nM and 1.8 nM, respectively.
`Nc1ccc(S(=O)(=O)c2ccc(N)cc2)cc1` [Dapsone, reference compound]: the IC50 is 2440 nM in assay [3] (setting [7]) and over 62500 nM in assay [1] (setting [8]).
Take `CC(=O)N(O)CCCCCNC(=O)CCC(=O)N(O)CCCCCNC(=O)CCC(=O)N(O)CCCCCN` [Deferoxamine, reference compound]: the results for the IC50 in assay [3] (setting [7]) and in assay [1] (setting [8]) were over 12500 nM and over 10000 nM, respectively.
Consider `C[C@]12CC[C@H](OS(=O)(=O)O)CC1=CC[C@@H]1[C@@H]2CC[C@]2(C)C(=O)CC[C@@H]12` [Dehydroepiandrosterone sulphate, reference compound], for which the results for the IC50 in assay [1] (setting [6]) and in assay [2] were over 62500 nM and over 12500 nM, respectively.
Taken in the same sequence, the figures for `C[C@H]1c2cccc(O)c2C(O)=C2C(=O)[C@]3(O)C(O)=C(C(N)=O)C(=O)[C@@H](N(C)C)[C@@H]3[C@@H](O)[C@@H]21` [Doxycyclin, reference compound] were 8820 nM and 11600 nM.
On to `O=CN(O)CCCP(=O)(O)O` [Fosmidomycin, reference compound], for which the IC50 was over 12500 nM in assay [3] (setting [7]) and over 10000 nM in assay [1] (setting [8]).
`CCCCN(CCCC)CCC(O)c1cc2c(Cl)cc(Cl)cc2c2cc(C(F)(F)F)ccc12` (stereo not shown) [Halofantrine, reference compound]: the IC50 is 2840 nM in assay [3] (setting [7]) and 1.5 nM in assay [1] (setting [8]).
In the case of `CCN(CCO)CCCC(C)Nc1ccnc2cc(Cl)ccc12` (stereo not shown) [Hydroxychloroquine, reference compound], the IC50 in assay [3] (setting [7]) is over 12500 nM; in assay [1] (setting [8]) it was 13.9 nM.
On to `CCCCN(CCCC)CC(O)c1cc(Cl)cc2c1-c1ccc(Cl)cc1/C2=C/c1ccc(Cl)cc1` (stereo not shown) [Lumefantrine, reference compound], for which the IC50 in assay [3] (setting [7]) is over 12500 nM; in assay [1] (setting [8]) it was 7.3 nM.
For the compound `COc1ccc(C2=C(c3ccc(OC)cc3)C3(c4ccccc4)C(=O)C2(c2ccccc2)C2C(=O)N(c4ccc(C)cc4)C(=O)C23)cc1` (stereo not shown) [MMV666101], the inhibition at 50 µM in assay [3] (read-out: Inhibition% @ 50 uM rep1) is 96%; in assay [3] (read-out: Inhibition% @ 50 uM rep2), 100%. Further, the IC50 in assay [3] (read-out: PbLuc IC50, dose response, 1/3 dilutions, max conc. 10 or 50 uM, unit inferred) is 201 nM; with HepG2-A16-CD81EGFP cells (HepG2, read-out: Tox IC50), over 10000 nM; in assay [5] it was over 20000 nM. Also, the inhibition at 10 µM was 106% in assay [3] (read-out: PbLuc max inhibition (%) @ 10 uM); 17% in assay [4] (setting [11]); 11% in assay [4] (setting [12]); 1.34% in the assay with HepG2-A16-CD81EGFP cells (HepG2, read-out: Tox max inhibition (%) @ 10 uM). The inhibition at 0.1 µM in assay [4] (setting [11]) is 7%; in assay [4] (setting [12]), 4%. The inhibition at 1 µM in assay [4] (setting [11]) came to 11%; in assay [4] (setting [12]) it was 19%. For the same compound, the cytotoxicity at 50 µM stood at 0.41% in the assay on HepG2-A16-CD81EGFP cells (HepG2, read-out: HepG2 Tox% @ 50 uM rep1) and 3.59% in the assay on HepG2-A16-CD81EGFP cells (HepG2, read-out: HepG2 Tox% @ 50 uM rep2). Moreover, the Emax in assay [5] (read-out: LucInhib max inhibition) worked out at 18%.
On to `OC(c1cc(C(F)(F)F)nc2c(C(F)(F)F)cccc12)C1CCCCN1` (stereo not shown) [Mefloquine (+ RS), Mefloquine, reference compound], for which the IC50 in assay [3] (setting [7]) was 2330 nM; in assay [1] (setting [6]) it was 16.6 nM.
`CN(C)c1ccc2nc3ccc(=[N+](C)C)cc-3sc2c1` [Methylene Blue, reference compound]: the IC50 in assay [3] (setting [7]) worked out at 95.6 nM; in assay [1] (setting [8]), 7980 nM.
As to `CC(=O)N[C@@H](C(=O)O)C(C)(C)S` [N-acetyl-D-penicillamine, reference compound], the IC50 is over 62500 nM in assay [1] (setting [6]) and over 12500 nM in assay [2].
On the same counts, the results for `COc1cc(N[C@H](C)CCCN)c2nccc(C)c2c1Oc1ccc(Cl)c(Cl)c1` [NPC-1161B, reference compound] are 1320 nM and 3550 nM.
Taken in the same sequence, the figures for `CC(C)(C)NCc1cc(Nc2ccnc3cc(Cl)ccc23)c2c(c1O)CCCC2` [Naphthoquine, reference compound] were 11.4 nM and 391 nM.
With `CCc1nc(N)nc(N)c1OCCCOc1ccccc1CCC(=O)O` [P218.HCl, reference compound], the IC50 came to 0.4 nM in assay [1] (setting [6]) and 0.916 nM in assay [2].
On to `Cc1cc(NS(=O)(=O)c2ccc(N)cc2)no1` [Sulfamethoxazole], for which, in assay [1] (setting [8]), the IC50 is over 10000 nM.
The same measure, in the same setting: next, `COc1cc(Cc2cnc(N)nc2N)cc(OC)c1OC` [Trimethoprim]: 5640 nM.
Regarding Trans-Mirincamycin [reference compound], the values for the IC50 in assay [1] (setting [6]) and in assay [2] were over 10000 nM and over 12500 nM, respectively.

Values taken from publication PMC4890880 (ACS infectious diseases, 2016).
